Where two headings read alike, the source gives them in different places.
How the values were obtained:
[1] = logP determination by HPLC on reversed-phase column (EEC directive 79/831 Annex V.A8); assay type: physicochemical; conditions: reversed-phase C18 HPLC column, pH 2.3, C 18 reversed-phase, 43° C., 0.1% aqueous phosphoric acid/acetonitrile gradient
Experimental: The logP values given in the Preparation Examples were determined in accordance with EEC directive 79/831 Annex V.A8 by HPLC (High Performance Liquid Chromatography) on a reversed-phase column (C 18). Temperature: 43° C.
Mobile phases for the determination in the acidic range: 0.1% aqueous phosphoric acid, acetonitrile; linear gradient from 10% acetonitrile to 90% acetonitrile.
Calibration was carried out using unbranched alkan-2-ones (having 3 to 16 carbon atoms) with known logP values (determination of the logP values by the retention times using linear interpolation between two successive alkanones).

Venturia inaequalis = experiment: Venturia test (apple)/protective; assay type: in vivo; conditions: apple plants, protective spray, application rate 100 g/ha, evaluation 10 days after inoculation
Experimental: Venturia Test (Apple)/Protective
• Solvents: 2.5 parts by weight of acetone • 24.5 parts by weight of dimethylacetamide • Emulsifier: 1.0 part by weight of alkylaryl polyglycol ether
(§1) To produce a suitable preparation of active compound, 1 part by weight of active compound is mixed with the stated amounts of solvents and emulsifier, and the concentrate is diluted with water to the desired concentration.
To test for protective activity, young plants are sprayed with the preparation of active compound at the stated application rate. After the spray coating has dried on, the plants are inoculated with an aqueous conidia suspension of the apple scab pathogen Venturia inaequalis and then remain in an incubation cabinet at about 20° C. and 100% relative atmospheric humidity for 1 day.
The plants are then placed in a greenhouse at about 21° C. and a relative atmospheric humidity of about 90%.
(§2) Evaluation is carried out 10 days after the inoculation. 0% means an efficacy which corresponds to that of the control, whereas an efficacy of 100% means that no infection is observed.

Puccinia recondita = experiment: Puccinia test (wheat)/protective; assay type: in vivo; conditions: wheat plants, protective spray, application rate 500 g/ha, evaluation 10 days after inoculation
Experimental: Puccinia Test (Wheat)/Protective
• Solvent: 25 parts by weight of N,N-dimethylacetamide • Emulsifier: 0.6 part by weight of alkylaryl polyglycol ether
(§3) To produce a suitable preparation of active compound, 1 part by weight of active compound is mixed with the stated amounts of solvent and emulsifier, and the concentrate is diluted with water to the desired concentration.
To test for protective activity, young plants are sprayed with the preparation of active compound at the stated application rate. After the spray coating has dried on, the plants are sprayed with a conidia suspension of Puccinia recondita. The plants remain in an incubation cabin at about 20° C. and 100% relative atmospheric humidity for 48 hours.
The plants are then placed in a greenhouse at a temperature of about 20° C. and a relative atmospheric humidity of 80% to promote the development of rust pustules.
as §2

Sphaerotheca fuliginea = experiment: Sphaerotheca test (cucumber)/protective; assay type: in vivo; conditions: Podosphaera fuliginea, 168 h, read-out: Efficacy in %
Experimental: Sphaerotheca Test (Cucumber)/Protective
• Solvents: 24.5 parts by weight of acetone • 24.5 parts by weight of N,N-dimethylacetamide • Emulsifier: 1 part by weight of alkylaryl polyglycol ether
as §1
To test for protective activity, young cucumber plants are sprayed with the preparation of active compound at the stated application rate. After the spray coating has dried on, the plants are inoculated with an aqueous spore suspension of Sphaerotheca fuliginea. The plants are then placed in a greenhouse at about 23° C. and a relative atmospheric humidity of about 70%.
(§4) Evaluation is carried out 7 days after the inoculation. 0% means an efficacy which corresponds to that of the control, whereas an efficacy of 100% means that no infection is observed.

Alternaria solani = experiment: Alternaria test (tomato)/protective; assay type: in vivo; conditions: tomato plants, protective spray, application rate 750 g/ha, evaluation 7 days after inoculation
Experimental: Alternaria Test (Tomato)/Protective
• Solvent: 49 parts by weight of N,N-dimethylformamide • Emulsifier: 1 part by weight of alkylaryl polyglycol ether
as §3
To test for protective activity, young tomato plants are sprayed with the preparation of active compound at the stated application rate. 1 day after the treatment, the plants are inoculated with a spore suspension of Alternaria solani. The plants then remain at 100% relative atmospheric humidity and 20° C. for 24 hours. Subsequently, the plants remain at 96% relative atmospheric humidity and a temperature of 20° C.
as §4

[2] = cucumber plants, protective spray, application rate 100 g/ha, evaluation 7 days after inoculation

SMILES | chromatographic logP [1] | Efficacy in % (Venturia inaequalis) [%] | Efficacy in % (Puccinia recondita) [%] | pest or weed control at 100 g/ha (Sphaerotheca fuliginea; [2]) [%] | pest or weed control at 100 g/ha (Sphaerotheca fuliginea) [%] | Efficacy in % (Alternaria solani) [%]
Cc1nc(C(F)F)c(C(=O)Nc2ccccc2C2CC3CCC2C3)s1 (stereo not shown) [Example 2, N-(2-bicyclo[2.2.1]hept-2-ylphenyl)-4-(difluoromethyl)-2-methyl-1,3-thiazole-5-carboxamide] | 3.63 | 100 | 100 |  | 100 | 
Cc1nc(C(F)F)c(C(=O)Nc2ccc(F)cc2C2CCCC2)s1 [Example 6] | 3.24 | 99 |  | 88 |  | 
Cc1nc(C(F)F)c(C(=O)Nc2ccccc2C2CCCCCCC2)s1 [Example 8] | 4.06 | 100 | 100 | 93 |  | 
Cc1nc(C(F)F)c(C(=O)Nc2ccccc2C2CCC[C@@H](C)C2)s1 (stereo partly shown) [Example 18] | 3.88 | 100 |  | 100 |  | 100
Cc1nc(C(F)F)c(C(=O)N(C)c2ccccc2C2CC3CCC2C3)s1 (stereo not shown) [Example 19] | 3.96 |  |  | 98 |  | 

Continued, in another order:

chromatographic logP [1] | SMILES | Efficacy in % (Venturia inaequalis) [%] | Efficacy in % (Puccinia recondita) [%] | pest or weed control at 100 g/ha (Sphaerotheca fuliginea; [2]) [%] | pest or weed control at 100 g/ha (Sphaerotheca fuliginea) [%] | Efficacy in % (Alternaria solani) [%]
3.5 | Cc1nc(C(F)F)c(C(=O)Nc2ccccc2C2CCCCC2)s1 [Example 1, N-(2-cyclohexylphenyl)-4-(difluoromethyl)-2-methyl-1,3-thiazole-5-carboxamide] | 100 | 100 | 89 |  | 
4.27 | Cc1nc(C(F)F)c(C(=O)Nc2ccc(Br)cc2C2CC3CCC2C3)s1 (stereo not shown) [Example 14] | 100 |  | 100 |  | 95
3.85 | Cc1nc(C(F)F)c(C(=O)N(C)c2ccccc2C2CCCCC2)s1 [Example 20] |  |  | 100 |  | 
3.95 | CC(=O)N(C(=O)c1sc(C)nc1C(F)F)c1ccccc1C1CC2CCC1C2 (stereo not shown) [Example 21] | 96 |  | 98 |  | 100
3.86 | CC(=O)N(C(=O)c1sc(C)nc1C(F)F)c1ccccc1C1CCCCC1 [Example 22] |  | 93 | 96 |  | 

— patent US7470793B2, “Thiazol-(bi)cycloalkyl-carboxanilides” (priority 2002, dated 2008)
